≈ marks a conversion by molar mass, not a printed value. Bounds are passed on as bounds.

This experiment deals with Mycobacterium tuberculosis. Description: Antituberculosis activity against isoniazid-resistant Mycobacterium tuberculosis CN-40 by microdilution method. The format is functional.

As to `CCOC(=O)c1[nH]c2ccccc2c1CNNC(=O)c1cc[n+]([O-])cc1`, the minimum inhibitory concentration (MIC) turned out to be 10 µg/mL (≈ 28.2 µM).
With `CC(=O)n1cc(NNC(=O)c2ccc[n+]([O-])c2)c2ccccc21` the figure was 10 µg/mL (≈ 32.2 µM).
In the case of `Cc1ccc2[nH]c(C(=O)O)c(/C=N\NC(=O)c3ccncc3)c2c1` it was 4 µg/mL (≈ 12.4 µM).
On to `CCOC(=O)c1[nH]c2ccccc2c1CNNC(=O)c1ccncc1`, for which 10 µg/mL (≈ 29.6 µM) was the least that counted as inhibitory (MIC).
With `CCOC(=O)c1[nH]c2ccc(C)cc2c1/C=N/NC(N)=S` the figure was 2 µg/mL (≈ 6.57 µM); with `CCOC(=O)c1[nH]c2ccc(C)cc2c1/C=N\NC(=O)c1ccncc1`, 2 µg/mL (≈ 5.71 µM).
With `CCOC(=O)c1[nH]c2ccc(Cl)cc2c1CNNC(=O)c1ccncc1` the figure was 10 µg/mL (≈ 26.8 µM).
In the case of `O=C(N/N=C\c1c[nH]c2ccccc12)c1ccncc1` it was 10 µg/mL (≈ 37.8 µM); in that of `NNC(=O)c1ccc[n+]([O-])c1`, greater than 20 µg/mL; in that of `CCOC(=O)c1[nH]c2ccccc2c1/C=N\NC(=O)c1cc[n+]([O-])cc1`, 10 µg/mL (≈ 28.4 µM).
The compound `CCOC(=O)c1[nH]c2ccc(C)cc2c1CNNC(=O)c1ccncc1` gave an MIC of 10 µg/mL (≈ 28.4 µM).
On to `CCOC(=O)c1[nH]c2ccccc2c1/C=N\NC(=O)c1ccncc1`, for which the lowest concentration to inhibit growth (MIC) was 2 µg/mL (≈ 5.95 µM).
For the compound `NNC(=O)c1cc[n+]([O-])cc1`, the minimum inhibitory concentration (MIC) is greater than 20 µg/mL.
With `O=C(NNCc1c[nH]c2ccccc12)c1ccncc1` the figure was 10 µg/mL (≈ 37.6 µM); with `CCOC(=O)c1[nH]c2ccc(Cl)cc2c1/C=N\NC(=O)c1ccncc1`, 2 µg/mL (≈ 5.39 µM).
`CC(=O)n1cc(NNC(=O)c2cc[n+]([O-])cc2)c2ccccc21` displayed a minimum inhibitory concentration (MIC) of 10 µg/mL (≈ 32.2 µM).
With `O=C(N/N=C\c1c[nH]c2ccccc12)c1cc[n+]([O-])cc1` the figure was 10 µg/mL (≈ 35.7 µM); with `CC(=O)n1cc(NNC(=O)c2ccncc2)c2ccccc21`, 2 µg/mL (≈ 6.8 µM).
In the case of `NNC(=O)c1ccncc1` [ISONIAZID] it was 20 µg/mL (≈ 146 µM); in that of `NNC(=O)c1cccnc1` [NICOTINIC ACID HYDRAZIDE], greater than 20 µg/mL.

The term MIC denotes the lowest concentration that inhibits growth of the organism. Read a high MIC as a need for much substance.

The record behind these values is ChEMBL document CHEMBL3751705, “Synthesis and antituberculosis activity of indole-pyridine derived hydrazides, hydrazide-hydrazones, and thiosemicarbazones” (Bioorg Med Chem Lett, 2016).
